According to publication PMC6838683, “Discovery of Human Signaling Systems: Pairing Peptides to G Protein-Coupled Receptors” (Cell, 2019):
Positions of bridges follow the written chain, without caps; N, C: chain ends. Residues, ends and D or L forms follow the SMILES beside them.

Experiments:
GPR139 [1] = target: T1, GPR139 (Homo sapiens, UniProt Q6DWJ6); assay: IP1 accumulation; format: cell-based; details: mean, SEM and n
T1 construct: hIL-2Ra signal peptide (N); expressed in transfected cells
T1 sequence (Q6DWJ6 2-353 limits assumed): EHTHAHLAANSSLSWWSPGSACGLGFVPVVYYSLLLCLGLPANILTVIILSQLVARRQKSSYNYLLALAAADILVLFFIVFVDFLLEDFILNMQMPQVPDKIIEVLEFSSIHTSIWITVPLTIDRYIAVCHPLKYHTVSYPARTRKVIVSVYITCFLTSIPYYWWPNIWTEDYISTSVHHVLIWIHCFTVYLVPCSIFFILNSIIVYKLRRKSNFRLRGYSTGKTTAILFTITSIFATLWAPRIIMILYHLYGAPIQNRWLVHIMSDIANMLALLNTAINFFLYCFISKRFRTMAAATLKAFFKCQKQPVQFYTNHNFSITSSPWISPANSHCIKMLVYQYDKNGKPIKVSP
Text: Supplement mmc7.xlsx, sheet "Peptide validation data" | column: Emax; pEC50

GPR139 [2] = target: T1, GPR139; assay: Repeat of proposed literature pairing (mass redistribution and/or internalization); format: cell-based; details: GPR139
Text: DMR assays provide a single integrated readout of ligand-dependent cellular response, utilizing an optical biosensor in specialized microplates to detect wavelength shifts of reflected light as it passes through the biosensor and the lower portion of the cell (∼150-200 nm). As a signal pathway agnostic approach, DMR assays are well-suited to the study of GPCRs ([Fang et al., 2008], [Schröder et al., 2011]). The mass redistribution response (Δ picometer (pm)) likely reflects a number of intracellular events, including cytoskeletal rearrangement, protein trafficking and receptor internalization. Orphan receptor-expressing cells were gently washed twice with assay buffer (HBSS with 1 mM CaCl2, 1 mM MgCl2, 20 mM HEPES, 0.01% pluronic F-68, pH 7.4) containing 0.1% DMSO and cells were equilibrated for 90 min at 22°C in the EPIC Benchtop (BT) System (Corning) to establish a stable DMR signal. After 3-5 min baseline recordings, peptides (10 μM) were added in duplicate wells using an electronic 384-channel Viaflo pipette (Integra Biosciences, Switzerland) and DMR responses were measured for 60 min at 22°C. 100 nM norepinephrine was included as an internal assay control to assess the cellular DMR response via endogenously-expressed adrenoceptors in the TREx 293 cells. Real-time data were processed using the BT to column converter MS-Excel macro (Corning) and analyzed in GraphPad Prism 7.0. DMR recordings in peptide screening experiments were buffer and solvent corrected and the area under the curve (AUC) was quantified. For subsequent validation experiments, peptides were diluted in assay buffer containing 0.1% DMSO and DMR assays were performed as above. […] Data represent mean ± standard error of the mean (SEM) from at least 3 biologically independent experiments.
A TR-FRET real-time internalization assay was used to examine peptide-dependent changes in orphan receptor localization as described previously ([Foster and Bräuner-Osborne, 2018]). Surface-expressed SNAP-tagged receptors were labeled with a cell-impermeable luminescent terbium cryptate (100 nM SNAP Lumi4-Tb; Cisbio, France) for 1 hr at 37°C. Cells were washed to remove excess terbium and incubated with fluorescein-O-acetic acid (100 μM; Sigma Aldrich) for 5 min at 37°C. Peptides were added as for DMR assays, and internalization responses were recorded for 60 min at 37°C using an EnVision 2104 Multimode plate reader (PerkinElmer). 100 nM GLP-1 was used as a positive control for SNAP-GLP1R internalization. Real-time internalization responses were calculated based on TR-FRET (excitation 340 nm; emission 520 nm and 615 nm), and were expressed as the ratio between donor (terbium) and acceptor (fluorescein) emission. For peptide screening analysis (both DMR and internalization assays), we calculated the area under the curve from the real-time traces. […] Validation experiments for receptor internalization were performed as above. Internalization data was processed in MS-Excel and area under the curve was used to generate concentration-response curves using GraphPad Prism 7.0. Data represent mean ± standard error of the mean (SEM) from at least 3 biologically independent experiments.

GPR139 [3] = target: T1, GPR139; assay: β-arrestin recruitment (Tango), validation; format: cell-based
Text: (§1) Supplement mmc7.xlsx, sheet "Peptide validation data" | column: Comment

GPR55 [4] = target: T2, GPR55 (Homo sapiens, UniProt Q9Y2T6); assay: β-arrestin recruitment (Tango); format: cell-based; parameters: hIL-2Ra signal peptide (N); expressed in transfected cells
GPR55 [5] = target: T2, GPR55; assay: Dynamic mass redistribution (DMR), concentration-response; format: cell-based; parameters: hIL-2Ra signal peptide (N); expressed in transfected cells; details: GPR55, data from single experiment (n = 1)
In short: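 Doxycycline-induced (0.1 μg/ml) SNAP-tagged receptors in TREx 293 cells, equilibrated 90 min at 22°C in HEPES-buffered HBSS, pH 7.4, with 0.1% DMSO. Peptide-evoked optical wavelength shift recorded for 60 min at 22°C, buffer/solvent corrected and quantified as area under the curve. Mean ± SEM of at least 3 independent experiments.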

GPR55 [6] = target: T2, GPR55; assay: Real-time receptor internalization (TR-FRET), concentration-response; format: cell-based; parameters: hIL-2Ra signal peptide (N); expressed in transfected cells; details: GPR55, data from single experiment (n = 1)
In short: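 Doxycycline-induced (0.1 μg/ml) SNAP-tagged receptor cells had surface receptors labeled with 100 nM Lumi4-Tb for 1 h at 37°C, then 100 μM fluorescein-O-acetic acid for 5 min. Peptide-induced internalization was recorded by TR-FRET for 60 min at 37°C as donor/acceptor emission ratio. Area under the curve gave concentration-response curves; mean ± SEM, ≥3 independent experiments.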

GPR176 [7] = target: T3, GPR176 (Homo sapiens, UniProt Q14439); assay: Real-time receptor internalization, validation; format: cell-based
T3 construct: host or cells: HTLA cells (HEK293-derived)
T3 sequence (Q14439 1-515): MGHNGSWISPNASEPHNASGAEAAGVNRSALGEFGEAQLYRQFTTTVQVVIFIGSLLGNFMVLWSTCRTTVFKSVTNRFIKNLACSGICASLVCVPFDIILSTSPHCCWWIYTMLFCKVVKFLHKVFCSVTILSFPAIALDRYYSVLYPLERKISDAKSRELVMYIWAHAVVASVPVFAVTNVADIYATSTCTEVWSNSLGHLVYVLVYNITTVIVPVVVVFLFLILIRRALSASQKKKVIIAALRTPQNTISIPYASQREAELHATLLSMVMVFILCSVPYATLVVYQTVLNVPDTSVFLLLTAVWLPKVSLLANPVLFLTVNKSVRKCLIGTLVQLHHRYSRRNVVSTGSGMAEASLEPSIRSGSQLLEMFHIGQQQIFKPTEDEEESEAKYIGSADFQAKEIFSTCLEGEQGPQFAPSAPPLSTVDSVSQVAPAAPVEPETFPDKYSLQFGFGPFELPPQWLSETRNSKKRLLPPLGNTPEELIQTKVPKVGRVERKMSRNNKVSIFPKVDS
Text: as §1

GPR176 [8] = target: T3, GPR176; assay: Dynamic mass redistribution (DMR), validation; format: cell-based
Text: as §1

GPR176 [9] = target: T3, GPR176; assay: Real-time receptor internalization (AUC), peptide validation; format: cell-based; details: Emax and pEC50 n.d., n = 2
Text: as §1

[10] = tested on: 120 GPCR targets, including all available orphan receptors and 27 known class A peptide receptors; assay: Peptide library screen, β-arrestin recruitment (Tango, fold change, 10 μM); format: cell-based, human; details: Tango; receptor(s) at which the known library peptide was active, among its known GPCR target(s); validated pairings
In short: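 HTLA cells (HEK293 with tTA-dependent luciferase and β-arrestin2-TEV) transiently transfected with Tango GPCR constructs, then stimulated overnight with 10 μM peptides in 1% dFBS medium. Luciferase luminescence read after 15–20 min Bright-Glo incubation at room temperature.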

GPR176 [11] = target: T3, GPR176; assay: Dynamic mass redistribution (DMR, AUC), peptide validation; format: cell-based; details: Emax and pEC50 n.d., n = 2
Text: as §1

GPR176 [12] = target: T3, GPR176; assay: β-arrestin recruitment (Tango), indicative pairing; format: cell-based; details: mean, n = 3

T2 sequence (Q9Y2T6 2-319 limits assumed): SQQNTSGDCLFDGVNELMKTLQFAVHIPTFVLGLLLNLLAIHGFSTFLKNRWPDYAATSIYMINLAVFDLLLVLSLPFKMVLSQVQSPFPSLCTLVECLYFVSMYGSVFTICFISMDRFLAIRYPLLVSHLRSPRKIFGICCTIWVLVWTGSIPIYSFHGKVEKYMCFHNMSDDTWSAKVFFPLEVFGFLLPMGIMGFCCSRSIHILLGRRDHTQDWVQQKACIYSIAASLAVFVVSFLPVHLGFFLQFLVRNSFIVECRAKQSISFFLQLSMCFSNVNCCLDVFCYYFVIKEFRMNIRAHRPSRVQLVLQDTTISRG

CSCC[C@H](NC(=O)[C@H](CO)NC(=O)[C@H](Cc1ccc(O)cc1)NC(=O)[C@@H](N)CO)C(=O)N[C@@H](CCC(=O)O)C(=O)N[C@@H](Cc1c[nH]cn1)C(=O)N[C@@H](Cc1ccccc1)C(=O)N[C@@H](CCCNC(=N)N)C(=O)N[C@@H](Cc1c[nH]c2ccccc12)C(=O)NCC(=O)N[C@@H](CCCCN)C(=O)N1CCC[C@H]1C(=O)N[C@H](C(N)=O)C(C)C [Alpha-MSH (des-acetyl MSH)]
Emax, IP1 (GPR139 [1]): 60.8 nM
EC50 (GPR139 [1]; read-out: pEC50, IP1 (converted)): 10000 nM
Emax, Internalization (AUC) (GPR139 [2]; data from single experiment (n = 1)): 2.9
Emax, DMR (peak) (GPR139 [2]; mean, SEM and n): 39.5
EC50 (GPR139 [2]; mean, SEM and n, read-out: pEC50, DMR (peak) (converted)): 36.3 nM
Comment on response, Tango (fold over basal); Emax and pEC50 n.d. (GPR139 [3]): No response

CC[C@H](C)[C@H](NC(=O)[C@@H](NC(=O)[C@H](Cc1c[nH]c2ccccc12)NC(=O)[C@H](CCC(=O)O)NC(=O)[C@H](CO)NC(=O)[C@@H](NC(=O)[C@H](CO)NC(=O)[C@@H]1CSSC[C@H](NC(=O)[C@H](CC(=O)O)NC(=O)[C@@H](N)CCC(=O)O)C(=O)N[C@@H](CCCCN)C(=O)N[C@@H](Cc2ccc(O)cc2)C(=O)N[C@@H]([C@@H](C)CC)C(=O)N[C@@H](C(C)C)C(=O)N[C@@H](C(C)C)C(=O)N[C@@H](CCC(=O)O)C(=O)N[C@@H](CCCCN)C(=O)N[C@@H](CCCCN)C(=O)N[C@@H](CC(=O)O)C(=O)N2CCC[C@H]2C(=O)N[C@@H](CCCCN)C(=O)N[C@@H](CCCCN)C(=O)N[C@@H]([C@@H](C)O)C(=O)N1)C(C)C)[C@@H](C)CC)C(=O)O [MSMB (91-114)] (H-EDCKYIVVEKKDPKKTCSVSEWII-OH; disulfide 3-17; N-terminus and C-terminus assumed)
Comment on response, Tango (fold over basal); Emax and pEC50 n.d. (GPR55 [4]): No response
Emax, DMR (AUC) (GPR55 [5]): 169875.0
EC50 (GPR55 [5]; read-out: pEC50, DMR (AUC) (converted)): 224 nM
Emax, Internalization (AUC) (GPR55 [6]): 37.6
EC50 (GPR55 [6]; read-out: pEC50, Internalization (AUC) (converted)): 2690 nM

RSVNPYLQ [SCG5 (181-188)]
Comment on response, Internalization (AUC); Emax and pEC50 n.d. (GPR176 [7]): No response
Comment on response, DMR (AUC); Emax and pEC50 n.d. (GPR176 [8]): No response

SYSMEHFRWGKPVGKKRRPVKVYPNGAEDESAEAFPLEF [Peptide 208]
Comment, Internalization (AUC) (GPR176 [9]): No response
Active at: (activity in b-arrestin recruitment assays) [10]: MC4R
Comment, DMR (AUC) (GPR176 [11]): No response
Emax, Tango (fold over basal) (GPR176 [12]): 8.0 fold over basal
pEC50, Tango (fold over basal) (GPR176 [12]): 5.06
